# Publication PMC10713630, “Elucidation of the structural basis for ligand binding and translocation in conserved insect odorant receptor co-receptors” (Nature Communications, 2023)
# Several values for one entry are separate records, joined by “and”; a condition that tells them apart may be missing. Equal values may be shown once. Entries after “also recorded” stand apart in the source; their conditions may differ.
# Columns and labels:
# DmelOrco I79W = DmelOrco I79W (Drosophila melanogaster, UniProt Q9VNB5, I79W); assay: TEVC recording of VUAA1-induced current, DmelOrco I79W in Xenopus oocytes; format: cell-based; parameters: VUAA1-induced current, i79W: unit not given here; conditions: for VUAA1-induced current, i79W: Fig.4i dose-response, individual oocytes
# Excerpt: (§1) All Orco gene sequences were optimized[63] for protein expression in Xenopus laevis oocytes with the GenSmartTM Codon optimization Tool and subcloned into a pGEMHE-derived vector. The wildtype gene of Drosophila melanogaster Orco (DmelOrco) was synthesized by Genscript and subcloned with XmaI/XhoI cloning sites. Site-directed mutagenesis of DmelOrco was done by PCR with the Q5® site directed mutagenesis kit (NEB) using primers optimized with the NEBase Changer online tool and following the supplier’s protocol. After transformation of commercial competent bacteria (XL10 Gold) by standard heat-shock protocol and overnight culture in ampicillin-containing LB plates, positive clones were identified by electrophoretic restriction profile and external sequencing (Genewiz). DNAs of positive clones were amplified with Qiagen MidiPrep Kit and the ORF was fully sequenced. For in vitro transcription, DNAs were linearized with restriction enzyme NotI that cuts a unique site in the 3′ region of the polyA tail. The linearized DNAs were purified by the standard phenol:chloroform extraction method and transcribed into mRNA using the T7 ultra mMessage mMachine kit (Thermo Fisher Scientific). mRNAs were purified with the NucleoSpin RNA plus XS kit (Machery-Nagel). DNA and RNA were analyzed by agarose-gel electrophoresis and quantified by spectrophotometry.
# (§2) Xenopus laevis oocytes were prepared, as previously described. Briefly, oocytes were defolliculated after surgical retrieval by type 1 A collagenase over 2-3 h under smooth horizontal agitation. They were manually selected and incubated at 19 °C in modified-Barth’s solution (1 mM KCl, 0.82 mM MgSO4, 88 mM NaCl, 2.4 mM NaHCO3, 0.41 mM CaCl2, Ca(NO3)2 0.3 mM, 16 mM HEPES, pH 7.4) supplemented with 100 U mL^−1 of penicillin and streptomycin and 0.1 mg mL^−1 of gentamycin. Each oocyte was micro-injected with the Nanoject instrument (Drummond) with 50 nL of 20 ng of mRNA coding for the Orco of interest. Injected oocytes were incubated individually in 96-well plates for 4 days at 19 °C in the same buffer. Different batches of oocytes have been tested per construct. The results of the mutants of interest have been confirmed by a second set of experiments comparing the amplitudes with WT in the same day and from the same batch of oocytes (Supplementary Fig. 11).
# (§3) Whole cell currents were recorded with the two-electrode voltage-clamp (TEVC) technique with the HiClamp robot (MultiChannel System). Microelectrodes were filled with 3 M KCl. The high K^+ buffer used for recordings was composed of 91 mM KCl, 1 mM MgCl2, 1.8 mM CaCl2, 5 mM HEPES, pH 7.4. Membrane voltage was clamped to −50 mV and VUAA1 was applied for 60 s. Data were extracted with M. Vivaudou’s programs[65] and statistically analyzed with Prism 8 (Graphpad).
# DmelOrco I181W = DmelOrco I181W (Drosophila melanogaster, UniProt Q9VNB5, I181W); assay: TEVC recording of VUAA1-induced current, DmelOrco I181W in Xenopus oocytes; format: cell-based; parameters: VUAA1-induced current, i181W: unit not given here
# Excerpt: as §1, with “The linearized DNAs were purified by the standard phenol:chloroform extraction method and transcribed into mRNA using the T7 ultra mMessage mMachine kit (Thermo Fisher Scientific). mRNAs were purified with the NucleoSpin RNA plus XS kit (Machery-Nagel).” left out, “spectrophotometry. […]” for “spectrophotometry.”
# (§4) Whole cell currents were recorded with the two-electrode voltage-clamp (TEVC) technique with the HiClamp robot (MultiChannel System). […] Data were extracted with M. Vivaudou’s programs[65] and statistically analyzed with Prism 8 (Graphpad).
# DmelOrco W150A = DmelOrco W150A (Drosophila melanogaster, UniProt Q9VNB5, W150A); assay: TEVC recording of VUAA1-induced current, DmelOrco W150A in Xenopus oocytes; format: cell-based; parameters: VUAA1-induced current, W150A: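 current amplitude in µA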
# Excerpt: as §1, with “The linearized DNAs were purified by the standard phenol:chloroform extraction method and transcribed into mRNA using the T7 ultra mMessage mMachine kit (Thermo Fisher Scientific). mRNAs were purified with the NucleoSpin RNA plus XS kit (Machery-Nagel).” left out, “spectrophotometry. […]” for “spectrophotometry.”
# as §4
# MdesOrco = conditions: cited from earlier work
# DmelOrco V206S = DmelOrco V206S (Drosophila melanogaster, UniProt Q9VNB5, V206S); assay: TEVC recording of VUAA1-induced current, DmelOrco V206S in Xenopus oocytes; format: cell-based; parameters: unit not given here; conditions: Fig.4b; individual oocytes
# Excerpt: as §1, with “The linearized DNAs were purified by the standard phenol:chloroform extraction method and transcribed into mRNA using the T7 ultra mMessage mMachine kit (Thermo Fisher Scientific). mRNAs were purified with the NucleoSpin RNA plus XS kit (Machery-Nagel).” left out, “spectrophotometry. […]” for “spectrophotometry.”
# as §4
# DmelOrco F84W = DmelOrco F84W (Drosophila melanogaster, UniProt Q9VNB5, F84W); assay: TEVC recording of VUAA1-induced current, DmelOrco F84W in Xenopus oocytes; format: cell-based; conditions: 500 µM VUAA1, TEVC
# Excerpt: as §1, with “The linearized DNAs were purified by the standard phenol:chloroform extraction method and transcribed into mRNA using the T7 ultra mMessage mMachine kit (Thermo Fisher Scientific). mRNAs were purified with the NucleoSpin RNA plus XS kit (Machery-Nagel).” left out, “spectrophotometry. […]” for “spectrophotometry.”
# as §4
# DmelOrco Y400S = DmelOrco Y400S (Drosophila melanogaster, UniProt Q9VNB5, Y400S); assay: TEVC recording of VUAA1-induced current, DmelOrco Y400S in Xenopus oocytes; format: cell-based; conditions: 500 µM VUAA1, TEVC
# Excerpt: as §1, with “The linearized DNAs were purified by the standard phenol:chloroform extraction method and transcribed into mRNA using the T7 ultra mMessage mMachine kit (Thermo Fisher Scientific). mRNAs were purified with the NucleoSpin RNA plus XS kit (Machery-Nagel).” left out, “spectrophotometry. […]” for “spectrophotometry.”
# as §4
# DmelOrco F83A = DmelOrco F83A (Drosophila melanogaster, UniProt Q9VNB5, F83A); assay: TEVC recording of VUAA1-induced current, DmelOrco F83A in Xenopus oocytes; format: cell-based; conditions: 500 µM VUAA1, TEVC
# Excerpt: as §1, with “The linearized DNAs were purified by the standard phenol:chloroform extraction method and transcribed into mRNA using the T7 ultra mMessage mMachine kit (Thermo Fisher Scientific). mRNAs were purified with the NucleoSpin RNA plus XS kit (Machery-Nagel).” left out, “spectrophotometry. […]” for “spectrophotometry.”
# as §4
# AgamOrco/AgamOR65 = conditions: AgamOrco/AgamOR65; ref Tailor et al. 1; cited from earlier work
# non-injected oocytes = assay: TEVC recording, negative control (NC) oocytes, non-injected or water-injected; format: cell-based, Xenopus laevis; conditions: Fig.4b; individual oocytes; in µA
# Protocol: as §2
# as §3, with “Membrane voltage was clamped to −50 mV and VUAA1 was applied for 60 s.” left out
# DmelOrco Y390A = DmelOrco Y390A (Drosophila melanogaster, UniProt Q9VNB5, Y390A); assay: TEVC recording of VUAA1-induced current, DmelOrco Y390A in Xenopus oocytes; format: cell-based; conditions: 500 µM VUAA1, TEVC
# Excerpt: as §1, with “The linearized DNAs were purified by the standard phenol:chloroform extraction method and transcribed into mRNA using the T7 ultra mMessage mMachine kit (Thermo Fisher Scientific). mRNAs were purified with the NucleoSpin RNA plus XS kit (Machery-Nagel).” left out, “spectrophotometry. […]” for “spectrophotometry.”
# as §4
# DmelOrco Y400W = DmelOrco Y400W (Drosophila melanogaster, UniProt Q9VNB5, Y400W); assay: TEVC recording of VUAA1-induced current, DmelOrco Y400W in Xenopus oocytes; format: cell-based; conditions: 500 µM VUAA1, TEVC
# Excerpt: as §1, with “The linearized DNAs were purified by the standard phenol:chloroform extraction method and transcribed into mRNA using the T7 ultra mMessage mMachine kit (Thermo Fisher Scientific). mRNAs were purified with the NucleoSpin RNA plus XS kit (Machery-Nagel).” left out, “spectrophotometry. […]” for “spectrophotometry.”
# as §4
# DmelOrco V206S, sequence (Q9VNB5 whole entry V206S, the tested form may be a part): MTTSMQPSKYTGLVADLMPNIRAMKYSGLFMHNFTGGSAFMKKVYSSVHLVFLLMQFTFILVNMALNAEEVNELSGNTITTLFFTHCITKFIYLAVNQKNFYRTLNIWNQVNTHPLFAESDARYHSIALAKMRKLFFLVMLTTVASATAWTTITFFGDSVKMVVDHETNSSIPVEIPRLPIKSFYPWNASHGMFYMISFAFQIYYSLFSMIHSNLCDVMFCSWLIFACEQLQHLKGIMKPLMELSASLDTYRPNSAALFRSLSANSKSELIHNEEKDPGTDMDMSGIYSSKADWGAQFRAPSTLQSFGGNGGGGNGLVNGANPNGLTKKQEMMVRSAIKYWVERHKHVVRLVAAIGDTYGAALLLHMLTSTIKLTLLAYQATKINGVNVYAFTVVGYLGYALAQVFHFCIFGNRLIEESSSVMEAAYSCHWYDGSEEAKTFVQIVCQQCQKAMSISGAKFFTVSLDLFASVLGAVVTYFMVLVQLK
# DmelOrco I79W, sequence (Q9VNB5 whole entry I79W, the tested form may be a part): as the sequence (Q9VNB5 whole entry V206S, the tested form may be a part) above, with I79W, S206V counted along it
# DmelOrco I181W, sequence (Q9VNB5 whole entry I181W, the tested form may be a part): as the sequence (Q9VNB5 whole entry V206S, the tested form may be a part) above, with I181W, S206V counted along it
# DmelOrco W150A, sequence (Q9VNB5 whole entry W150A, the tested form may be a part): as the sequence (Q9VNB5 whole entry V206S, the tested form may be a part) above, with W150A, S206V counted along it
# DmelOrco Y400S, sequence (Q9VNB5 whole entry Y400S, the tested form may be a part): as the sequence (Q9VNB5 whole entry V206S, the tested form may be a part) above, with S206V, Y400S counted along it
# DmelOrco F84W, sequence (Q9VNB5 whole entry F84W, the tested form may be a part): as the sequence (Q9VNB5 whole entry V206S, the tested form may be a part) above, with F84W, S206V counted along it
# DmelOrco Y390A, sequence (Q9VNB5 whole entry Y390A, the tested form may be a part): as the sequence (Q9VNB5 whole entry V206S, the tested form may be a part) above, with S206V, Y390A counted along it
# DmelOrco Y400W, sequence (Q9VNB5 whole entry Y400W, the tested form may be a part): as the sequence (Q9VNB5 whole entry V206S, the tested form may be a part) above, with S206V, Y400W counted along it
# DmelOrco F83A, sequence (Q9VNB5 whole entry F83A, the tested form may be a part): as the sequence (Q9VNB5 whole entry V206S, the tested form may be a part) above, with F83A, S206V counted along it
smiles,measurement,setting,value
"CCc1ccc(NC(=O)CSc2nnc(-c3cccnc3)n2CC)cc1 [VUAA1, N-(4-ethylphenyl)−2-((4-ethyl-5-(3-pyridinyl)−4H-1,2,4-triazol-3-yl)thio)acetamide]","VUAA1-induced current, i79W",DmelOrco I79W; VUAA1 25 µM (Log(M) -4.6),0.12 and 0.11 and 0.22 and 0.36 and 0.01 (3×) and 0.03 and 0.6 and 0.26
same,"VUAA1-induced current, i79W",DmelOrco I79W; VUAA1 50 µM (Log(M) -4.3),0.18 and 0.17 and 0.32 and 0.56 and 0.02 (2×) and 0.03 and 0.05 and 0.68 and 0.28
same,"VUAA1-induced current, i79W",DmelOrco I79W; VUAA1 100 µM (Log(M) -4),0.23 and 0.22 and 0.41 and 0.7 and 0.02 (2×) and 0.06 and 0.09 and 0.71 and 0.29
same,"VUAA1-induced current, i79W",DmelOrco I79W; VUAA1 500 µM (Log(M) -3.3),0.29 and 0.28 and 0.52 and 0.84 and 0.02 and 0.07 and 0.12 and 0.82 and 0.03 and 0.25
same,"VUAA1-induced current, i79W",DmelOrco I79W; VUAA1 1000 µM (Log(M) -3),0.38 and 0.36 and 0.67 and 1.01 and 0.03 and 0.09 and 0.14 and 0.96 and 0.04 and 0.24
same,Imax,"DmelOrco I79W; concentration-effect curve of VUAA1, TEVC, I79W",0.65 µA
same,Response to VUAA1 compared with WT,"DmelOrco I181W; 500 µM VUAA1, TEVC, I181W",significantly reduced or abolished the activation; also recorded: clear loss of VUAA1 activation
same,"VUAA1-induced current, i181W","DmelOrco I181W; Fig.4b, individual oocytes",0.52 and 0.99 and 0.9 and 0.42 and 0.27 and 1.33 and 0.95 and 0.29 and 0.18 and 1.75 and 2.06 and 1.1 and 0.66 and 0.22 and 0.14 and 0.54 and 0.08
same,Response to VUAA1 compared with WT,"DmelOrco W150A; 500 µM VUAA1, TEVC, W150A",did not significantly affect the amplitude of activation
same,"VUAA1-induced current, W150A","DmelOrco W150A; Fig.4b, individual oocytes",4.32 and 3.86 and 5.79 and 2.71 and 5.07 and 2.76 and 2.23 and 2.97 and 2.04 and 1.54 and 0.79 and 4.84 and 4.06 and 8
same,Sensitivity of MdesOrco to VUAA1,MdesOrco,VUAA1-insensitive
same,"VUAA1-induced current, V206S",DmelOrco V206S,3.68 and 9.72 and 7.51 and 6.18 and 8.36 and 5.44 and 4.17 and 5.76
same,Response to VUAA1 compared with WT,DmelOrco F84W,did not induce a significant change
same,Response to VUAA1 compared with WT,DmelOrco Y400S,did not significantly change the response
same,Current induced by VUAA1 (median),DmelOrco F83A,2.33 µA
same,EC50,AgamOrco/AgamOR65,37 µM
same,"VUAA1-induced current, NC",non-injected oocytes,0.05 and 0.03 and 0.3 and 0.19 and 0.39 and 0.02
same,Response to VUAA1 compared with WT,DmelOrco Y390A,did not show significant change
same,Response to VUAA1 compared with WT,DmelOrco Y400W,did not significantly change the response
